This is an account of results in publication PMC10503972, “Synthesis, predictions of drug-likeness, and pharmacokinetic properties of some chiral thioureas as potent enzyme inhibition agents” (Turkish Journal of Chemistry, 2021).

The target in one assay is urease (Canavalia ensiformis, UniProt P07374). The settings on record: read-out: Urease assay IC50; means ± S.E.M. of three parallel measurements.
The target of the next assay is tyrosinase. The assay is described as follows: Tyrosinase inhibitory activity. It counts as biochemical. The conditions noted are these: means ± S.E.M. of three parallel measurements. How it is done:
The spectrophotometric analysis of tyrosinase inhibitory activities was performed according to the slightly modified literature procedures of Hearing.

Assay [1] concerns the target acetylcholinesterase (AChE) from electric eel (Electrophorus electricus, UniProt O42275). The settings on record: read-out: AChE assay IC50; means ± S.E.M. of three parallel measurements.
Experimental: (§1) Herein, acetylcholinesterase (AChE) from electric eel and butyrylcholinesterase (BChE) horse serum was used. The acetylthiocholine iodide and butyryl thiocholine chloride were utilized as substrates.
(§2) The bioactivity tests were carried out in triplicate at four different concentrations. Results are given as IC50 (μg/mL). The data were the mean ± S.E.M. (standard error of the meaning) of triplicate analyses of each concentration under the 95 % reliability (p < 0.05).
The target of assay [2] is butyrylcholinesterase (BChE) horse serum (Equus caballus, UniProt P81908). The assay is described as follows: Anticholinesterase inhibitory activity, BChE assay (Ellman's method). The conditions noted are these: read-out: BChE assay IC50; means ± S.E.M. of three parallel measurements.
Experimental: as §1, §2

For orientation: IC50 means the concentration at which inhibition is half-maximal.

acetylcholinesterase (AChE) from electric eel, sequence (O42275 24-633): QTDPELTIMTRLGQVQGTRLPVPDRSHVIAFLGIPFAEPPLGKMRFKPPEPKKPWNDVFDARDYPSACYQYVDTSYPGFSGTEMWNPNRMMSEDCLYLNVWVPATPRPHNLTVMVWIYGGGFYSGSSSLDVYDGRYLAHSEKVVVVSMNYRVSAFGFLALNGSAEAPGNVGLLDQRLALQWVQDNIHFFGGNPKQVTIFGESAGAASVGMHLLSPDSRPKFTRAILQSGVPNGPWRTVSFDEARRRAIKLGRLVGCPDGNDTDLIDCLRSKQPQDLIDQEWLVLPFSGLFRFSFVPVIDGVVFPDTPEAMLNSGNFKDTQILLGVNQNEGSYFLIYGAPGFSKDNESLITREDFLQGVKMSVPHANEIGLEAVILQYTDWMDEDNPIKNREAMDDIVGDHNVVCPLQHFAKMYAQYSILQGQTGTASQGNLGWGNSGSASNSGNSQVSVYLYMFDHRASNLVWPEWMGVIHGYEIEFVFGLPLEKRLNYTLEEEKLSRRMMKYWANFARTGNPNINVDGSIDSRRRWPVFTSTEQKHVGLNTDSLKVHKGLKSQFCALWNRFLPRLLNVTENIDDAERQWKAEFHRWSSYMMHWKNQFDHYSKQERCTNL
butyrylcholinesterase (BChE) horse serum, sequence (P81908 whole entry): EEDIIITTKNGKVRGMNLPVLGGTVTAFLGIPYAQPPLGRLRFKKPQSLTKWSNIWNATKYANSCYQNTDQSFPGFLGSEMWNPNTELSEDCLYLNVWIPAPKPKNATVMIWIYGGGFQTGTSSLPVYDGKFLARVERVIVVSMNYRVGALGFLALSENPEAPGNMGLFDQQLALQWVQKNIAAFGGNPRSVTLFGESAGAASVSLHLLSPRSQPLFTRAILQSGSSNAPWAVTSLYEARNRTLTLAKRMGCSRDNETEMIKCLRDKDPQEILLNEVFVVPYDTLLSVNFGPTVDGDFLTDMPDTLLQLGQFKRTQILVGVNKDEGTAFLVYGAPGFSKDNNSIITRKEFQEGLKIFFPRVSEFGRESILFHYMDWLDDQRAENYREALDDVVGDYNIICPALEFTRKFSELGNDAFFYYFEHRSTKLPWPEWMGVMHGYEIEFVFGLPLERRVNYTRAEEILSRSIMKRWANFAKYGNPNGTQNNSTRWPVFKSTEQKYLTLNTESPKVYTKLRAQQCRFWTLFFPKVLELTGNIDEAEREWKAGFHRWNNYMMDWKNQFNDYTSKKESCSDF
urease, sequence (P07374 whole entry, looked up): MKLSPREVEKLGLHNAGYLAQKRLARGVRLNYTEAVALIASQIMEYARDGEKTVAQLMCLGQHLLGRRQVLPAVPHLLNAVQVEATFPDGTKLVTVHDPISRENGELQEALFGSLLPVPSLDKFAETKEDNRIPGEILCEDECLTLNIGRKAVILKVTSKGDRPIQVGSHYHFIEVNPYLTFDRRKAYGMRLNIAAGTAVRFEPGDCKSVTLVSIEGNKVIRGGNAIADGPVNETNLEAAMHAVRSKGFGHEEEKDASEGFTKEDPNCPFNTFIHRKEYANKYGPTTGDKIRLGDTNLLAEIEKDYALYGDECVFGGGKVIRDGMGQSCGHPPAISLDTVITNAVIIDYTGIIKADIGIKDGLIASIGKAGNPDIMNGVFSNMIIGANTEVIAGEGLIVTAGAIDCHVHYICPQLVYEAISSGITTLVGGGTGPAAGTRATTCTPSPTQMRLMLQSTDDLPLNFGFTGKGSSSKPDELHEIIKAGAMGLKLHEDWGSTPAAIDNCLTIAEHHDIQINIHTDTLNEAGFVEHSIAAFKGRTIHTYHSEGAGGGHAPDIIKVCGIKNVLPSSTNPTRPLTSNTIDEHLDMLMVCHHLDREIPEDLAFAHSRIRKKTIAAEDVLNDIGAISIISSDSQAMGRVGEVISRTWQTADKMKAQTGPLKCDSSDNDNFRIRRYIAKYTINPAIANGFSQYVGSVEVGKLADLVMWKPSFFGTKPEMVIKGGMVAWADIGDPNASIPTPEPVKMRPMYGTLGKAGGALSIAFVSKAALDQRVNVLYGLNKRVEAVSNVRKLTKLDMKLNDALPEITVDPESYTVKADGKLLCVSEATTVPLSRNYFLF
Experimental for urease: Solutions of chiral thioureas (1 – 17) were prepared at four different concentrations, i.e., 400, 200, 100, and 50 μM for urease inhibitory assay in EtOH. Additionally, EtOH was used as a control, while thiourea was used as urease standards. […] The spectrophotometric analysis of urease inhibitory activity was performed according to the literature procedures by measuring ammonia production using the indophenol method as described earlier [37].
as §2

`NC(N)=S` [Thiourea]: the IC50 at urease turned out to be 24.2 ± 0.3 µM.

Consider “N-(2,4-dimethoxyphenyl)-N′-(2-mercapto-carboxyethanyl)thiourea [Compound 10]”, for which the figures for the half-inhibitory concentration (IC50) (against tyrosinase; in assay [1]; in assay [2]) were 1500 ± 300 µM, 6.8 ± 1.1 µM and 45.8 ± 0.4 µM, respectively.

As to “N-(2,5-dichlorophenyl)-N′-(2-mercapto-carboxyethanyl)thiourea [Compound 15]”, the values for the IC50 (against tyrosinase; in assay [1]; in assay [2]) were 22200 ± 900 µM, 44.6 ± 0.3 µM and 82.9 ± 0.4 µM, respectively.

With “N-(2,5-dimethoxyphenyl)-N′-(2-mercapto-carboxyethanyl)thiourea [Compound 11]”, the IC50 on tyrosinase came out at 2900 ± 200 µM; in assay [1] it was 7.2 ± 0.5 µM; in assay [2] it was 49.7 ± 0.9 µM.

Take “N-(2-chloro-5-(trifluoromethyl)phenyl)-N′-(2-mercapto-carboxyethanyl)thiourea [Compound 9]”: the values for the IC50 (against tyrosinase; in assay [2]) were 15700 ± 500 µM and 80 ± 0.6 µM, respectively.

Turning to “N-(3,4,5-trimethoxyphenyl)-N′-(2-mercapto-carboxyethanyl)thiourea [Compound 14]”, the values for the IC50 (on tyrosinase; in assay [1]; in assay [2]) were 1100 ± 100 µM, 4.8 ± 0.9 µM and 29.5 ± 1.1 µM, respectively.

“N-(3,4-dimethoxyphenyl)-N′-(2-mercapto-carboxyethanyl)thiourea [Compound 12]”: the IC50 at tyrosinase amounted to 1600 ± 600 µM; in assay [1] it was 7.8 ± 0.6 µM; in assay [2], 54 ± 1.3 µM.

As to “N-(3,5-dimethoxyphenyl)-N′-(2-mercapto-carboxyethanyl)thiourea [Compound 13]”, the results for the 50% inhibitory concentration (IC50) (against tyrosinase; in assay [1]; in assay [2]) were 2200 ± 400 µM, 5.7 ± 1 µM and 37.2 ± 0.1 µM, respectively.

Consider “N-(4-(diethylamino)phenyl)-N′-(2-mercapto-carboxyethanyl)thiourea [Compound 17]”, for which the figures for the IC50 (on tyrosinase; in assay [1]; in assay [2]) were 5300 ± 800 µM, 3.9 ± 0.6 µM and 18.1 ± 0.5 µM, respectively.

Consider “N-(4-(dimethylamino)phenyl)-N′-(2-mercapto-carboxyethanyl)thiourea [Compound 16]”, for which the results for the IC50 (at tyrosinase; in assay [1]; in assay [2]) were 4700 ± 300 µM, 4.2 ± 0.6 µM and 24.6 ± 0.7 µM, respectively.

As for “N-(4-(trifluoromethyl)phenyl)-N′-(2-mercapto-carboxyethanyl)thiourea [Compound 5]”, the IC50 against tyrosinase came to 10400 ± 200 µM; in assay [1] it was 16.7 ± 0.2 µM; in assay [2], 64.3 ± 0.7 µM.

Consider “N-(4-bromophenyl)-N′-(2-mercapto-carboxyethanyl)thiourea [Compound 2]”, for which the IC50 stood at 28800 ± 100 µM against tyrosinase, 36.4 ± 0.2 µM in assay [1] and 75.1 ± 0.5 µM in assay [2].

As for “N-(4-chlorophenyl)-N′-(2-mercapto-carboxyethanyl)thiourea [Compound 3]”, the IC50 at tyrosinase stood at 16100 ± 900 µM; in assay [1], 31.7 ± 0.8 µM; in assay [2] it was 72.8 ± 1.1 µM.

Take “N-(4-cyanophenyl)-N′-(2-mercapto-carboxyethanyl)thiourea [Compound 7]”: the IC50 against tyrosinase stood at 35000 ± 1100 µM; in assay [1], 46.8 ± 1.3 µM; in assay [2], 84.4 ± 0.9 µM.

On to “N-(4-fluorophenyl)-N′-(2-mercapto-carboxyethanyl)thiourea [Compound 4]”, for which the IC50 is 12500 ± 300 µM at tyrosinase, 28.5 ± 0.5 µM in assay [1] and 70.4 ± 0.9 µM in assay [2].

With “N-(4-methoxyphenyl)-N′-(2-mercapto-carboxyethanyl)thiourea [Compound 6]”, the results for the IC50 (against tyrosinase; in assay [1]; in assay [2]) were 1900 ± 500 µM, 8.1 ± 0.9 µM and 58.2 ± 0.1 µM, respectively.

With “N-(5-chloro-2-methoxyphenyl)-N′-(2-mercapto-carboxyethanyl)thiourea [Compound 8]”, the figures for the IC50 (at tyrosinase; in assay [1]; in assay [2]) were 4000 ± 600 µM, 9.5 ± 1.2 µM and 61.2 ± 0.5 µM, respectively.

Consider “N-phenyl-N′-(2-mercapto-carboxyethanyl)thiourea [Compound 1]”, for which the IC50 on tyrosinase amounted to 9700 ± 1000 µM; in assay [1], 23.4 ± 1.2 µM; in assay [2] it was 66 ± 0.1 µM.
